Test [1] has as its target FGFR4 V550L kinase (Homo sapiens, UniProt P22455, V550L). Nature of the test: Inhibition of FGFR4 V550L mutant kinase activity (ULight-labeled PolyGT, EU665/EU615 reading). Type of test: biochemical. To be noted: FGFR4 V550L kinase 1 nM, ATP 10 μM, enzymatic reaction 2 hours. The essentials:
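TR-FRET kinase assay: 1 nM FGFR4 V550L, 10 μM ATP, 100 nM ULight-PolyGT substrate, 2 h at room temperature after 5 min compound–enzyme preincubation, 1% DMSO. Compound tested as 11-point 3-fold dilution from 2.5 μM to 0.042 nM final. Signal as EU665/EU615 ratio; IC50 fitted from % inhibition.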

The target of test [2] is T1, Ba/F3 ETV6-FGFR4 cells (Homo sapiens, UniProt P22455).
T1 construct: fused on or other part: N-terminal part of ETV6 (TEL), the oligomerising partner that makes the FGFR4 kinase constitutively active; P41212 (Transcription factor ETV6)
T1 sequence (P22455 whole entry, change not shown, the tested form may be a part): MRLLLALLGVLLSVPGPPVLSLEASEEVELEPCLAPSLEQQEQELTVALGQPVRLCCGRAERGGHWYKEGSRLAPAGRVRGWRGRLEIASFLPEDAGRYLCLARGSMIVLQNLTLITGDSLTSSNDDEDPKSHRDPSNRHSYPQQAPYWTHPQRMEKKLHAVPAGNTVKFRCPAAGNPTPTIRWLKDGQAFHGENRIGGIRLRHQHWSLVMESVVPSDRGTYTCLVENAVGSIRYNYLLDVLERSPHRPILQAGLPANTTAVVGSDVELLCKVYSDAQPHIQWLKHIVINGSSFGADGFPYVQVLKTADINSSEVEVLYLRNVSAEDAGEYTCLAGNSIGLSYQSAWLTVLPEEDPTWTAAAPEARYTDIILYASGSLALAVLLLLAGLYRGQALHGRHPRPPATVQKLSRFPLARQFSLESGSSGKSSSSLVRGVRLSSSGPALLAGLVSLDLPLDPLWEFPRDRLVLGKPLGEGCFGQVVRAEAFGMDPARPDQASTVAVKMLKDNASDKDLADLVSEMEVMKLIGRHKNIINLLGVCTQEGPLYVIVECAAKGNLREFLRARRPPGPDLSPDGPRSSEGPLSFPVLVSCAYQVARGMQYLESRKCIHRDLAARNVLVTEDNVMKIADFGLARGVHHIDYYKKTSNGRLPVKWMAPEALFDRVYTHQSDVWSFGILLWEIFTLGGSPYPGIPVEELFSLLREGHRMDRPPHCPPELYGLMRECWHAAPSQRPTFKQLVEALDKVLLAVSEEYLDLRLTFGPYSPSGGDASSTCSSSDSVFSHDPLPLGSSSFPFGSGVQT
Put plainly: Inhibition of cell proliferation (CCK-8), Ba/F3 ETV6-FGFR4 cells. In kind it is cell-based. Conditions: 72 hours of incubation, read-out: Ba/F3 ETV6-FGFR4 IC50. The method, boiled down:
(§1)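 Ba/F3 cells expressing ETV6-FGFR4 or ETV6-FGFR4-V550L exposed for 72 h to 9 concentrations from 4-fold serial dilution (0.25% DMSO final). Viability by CCK-8, OD 450 nm after 1–2 h at 37 °C, relative to untreated and cell-free blanks; IC50 from curve fitting.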

For test [3], the target named is FGFR4 kinase (Homo sapiens, UniProt P22455). Put plainly: Inhibition of FGFR4 kinase activity (ULight-labeled JAK-1 peptide, EU665/EU615 reading). In kind it is biochemical. Conditions: FGFR4 kinase 3.85 nM, ATP 100 μM, enzymatic reaction 2 hours. The method, boiled down:
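TR-FRET kinase assay using 3.85 nM FGFR4, 100 μM ATP and 100 nM ULight-JAK-1 (Tyr1023) peptide; 5 min enzyme–compound preincubation, then 2 h at room temperature. Compounds at 11 3-fold dilutions from 2.5 μM down to 0.042 nM, 1% DMSO. IC50 from EU665/EU615 ratio inhibition curves.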

In test [4] the target is T2, Ba/F3 ETV6-FGFR4-V550L cells (Homo sapiens, UniProt P22455, V550L, cells depend on it).
T2 construct: fused on or other part: N-terminal part of ETV6 (TEL), the oligomerising partner of the fusion; already named as the first entry; P41212 (Transcription factor ETV6)
T2 sequence (P22455 whole entry V550L, the tested form may be a part): as the sequence (P22455 whole entry, change not shown, the tested form may be a part) above, with V550L counted along it
Put plainly: Inhibition of cell proliferation (CCK-8), Ba/F3 ETV6-FGFR4-V550L cells. Conditions: 72 hours of incubation, read-out: Ba/F3 ETV6-FGFR4-V550L IC50. Type of test: cell-based. The method, boiled down:
as §1

From patent US12582654B2, “Cyano-substituted pyridine and cyano-substituted pyrimidine compound and preparation method therefor and application thereof” (BEIJING SCITECH-MQ PHARMACEUTICALS LIMITED, priority 2019, dated 2026) come the findings set out here.

FGFR4 V550L kinase, sequence (P22455 22-802 V550L): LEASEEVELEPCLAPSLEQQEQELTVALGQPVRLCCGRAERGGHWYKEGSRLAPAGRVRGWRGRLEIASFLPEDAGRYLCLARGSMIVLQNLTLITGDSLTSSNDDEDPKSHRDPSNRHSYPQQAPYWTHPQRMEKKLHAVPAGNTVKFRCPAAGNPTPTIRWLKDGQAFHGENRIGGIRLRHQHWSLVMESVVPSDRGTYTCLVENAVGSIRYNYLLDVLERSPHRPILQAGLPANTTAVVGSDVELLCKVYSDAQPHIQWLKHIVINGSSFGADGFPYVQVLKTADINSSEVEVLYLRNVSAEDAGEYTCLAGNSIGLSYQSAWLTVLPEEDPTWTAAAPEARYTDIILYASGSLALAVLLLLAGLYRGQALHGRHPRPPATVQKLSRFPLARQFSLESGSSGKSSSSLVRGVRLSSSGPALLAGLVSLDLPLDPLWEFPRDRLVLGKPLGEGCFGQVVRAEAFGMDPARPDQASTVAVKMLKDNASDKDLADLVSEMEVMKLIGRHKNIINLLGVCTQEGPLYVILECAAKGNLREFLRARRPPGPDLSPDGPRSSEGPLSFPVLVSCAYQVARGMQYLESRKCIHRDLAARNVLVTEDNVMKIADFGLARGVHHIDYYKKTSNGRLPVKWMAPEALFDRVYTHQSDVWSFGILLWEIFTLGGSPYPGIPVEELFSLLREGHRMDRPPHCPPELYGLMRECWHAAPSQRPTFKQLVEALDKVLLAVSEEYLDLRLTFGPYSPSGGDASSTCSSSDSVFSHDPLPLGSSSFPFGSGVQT
FGFR4 kinase, sequence (P22455 22-802): as the sequence (P22455 22-802 V550L) above, with L529V counted along it

With `C=CC(=O)Nc1cc(N2CCC(N3CCN(S(C)(=O)=O)CC3)CC2)ccc1Nc1ncc(C#N)c(Nc2ccccc2OC(C)C)n1` [Example 51, N-(2-((5-cyano-4-((2-isopropoxyphenyl)amino)pyrimidin-2-yl)amino)-5-(4-(4-(methylsulfonyl)piperazin-1-yl)piperidin-1-yl)phenyl) acrylamide], the IC50 fell in the range of 10 to 50 nM in test [1] and 100 to 1000 nM in test [3]. The GI50 in test [2] and in test [4] was ≤ 10 nM in each case.
As to `C=CC(=O)Nc1cc(N2CCC(N3CCN(C)CC3)CC2)ccc1Nc1ncc(C#N)c(Nc2ccc(C(=O)O)cc2OC(C)C)n1` [Example 52, 4-((2-((2-acrylamido-4-(4-(4-methylpiperazin-1-yl)piperidin-1-yl)phenyl)amino)-5-cyanopyrimidin-4-yl)amino)-3-isopropoxybenzoic acid], the IC50 in test [1] and in test [3] was ≤ 10 nM throughout. Also, the GI50 in test [2] and in test [4] was 100 to 1000 nM each time.
Consider `C=CC(=O)Nc1cc(N2CCC(N3CCN(C)CC3)CC2)c(OC)cc1Nc1ncc(C#N)c(Nc2ccccc2OC(C)C)n1` [Example 53, N-(2-((5-cyano-4-((2-isopropoxyphenyl)amino)pyrimidin-2-yl)amino)-4-methoxy-5-(4-(4-methylpiperazin-1-yl)piperidin-1-yl)phenyl) acrylamide], for which the values for the IC50 in test [1] and in test [3] were ≤ 10 nM and 50 to 100 nM, respectively. In addition, the GI50 in test [2] and in test [4] was ≤ 10 nM each time.
For `C=CC(=O)Nc1cc(N(C)CCN(C)C)ccc1Nc1ncc(C#N)c(Nc2ccccc2OC(C)C)n1` [Example 54], the figures for the IC50 in test [1] and in test [3] were ≤ 10 nM and 10 to 50 nM, respectively. For the same molecule, the GI50 in test [2] and in test [4] was ≤ 10 nM throughout.
Regarding `C=CC(=O)Nc1cc(N(C)CCN(C)C)c(OC)cc1Nc1ncc(C#N)c(Nc2ccccc2OC(C)C)n1` [Example 55, N-(2-((5-cyano-4-((2-isopropoxyphenyl)amino)pyrimidin-2-yl)amino)-5-((2-(dimethylamino)ethyl)(methyl)amino)-4-methoxyphenyl) acrylamide], the IC50 was ≤ 10 nM in test [1] and 10 to 50 nM in test [3]. Besides, the GI50 in test [2] and in test [4] was ≤ 10 nM each time.
On to `C=CC(=O)Nc1cc(N2CCC(N(C)CCOC)CC2)ccc1Nc1ncc(C#N)c(Nc2ccccc2OC(C)C)n1` [Example 56, N-(2-((5-cyano-4-((2-isopropoxyphenyl)amino)pyrimidin-2-yl)amino)-5-(4-((2-methoxyethyl) (methyl)amino)piperidin-1-yl)phenyl) acrylamide], for which the results for the half-inhibitory concentration (IC50) in test [1] and in test [3] were ≤ 10 nM and 10 to 50 nM, respectively. In addition, the GI50 in test [2] and in test [4] was ≤ 10 nM throughout.
On to `C=CC(=O)Nc1cc(N2CCC(N(C)CCN(C)C)CC2)ccc1Nc1ncc(C#N)c(Nc2ccccc2OC(C)C)n1` [Example 57, N-(2-((5-cyano-4-((2-isopropoxyphenyl)amino)pyrimidin-2-yl)amino)-5-(4-((2-(dimethylamino)ethyl)(methyl)amino)piperidin-1-yl)phenyl) acrylamide], for which the IC50 in test [1] is ≤ 10 nM; in test [3], 10 to 50 nM. Besides, the GI50 in test [2] and in test [4] was ≤ 10 nM throughout.
With `C=CC(=O)Nc1cc(N2CCC(N3CCN(CCOC)CC3)CC2)ccc1Nc1ncc(C#N)c(Nc2ccccc2OC(C)C)n1` [Example 58, N-(2-((5-cyano-4-((2-isopropoxyphenyl)amino)pyrimidin-2-yl)amino)-5-(4-(4-(2-methoxyethyl)piperazin-1-yl)piperidin-1-yl)phenyl) acrylamide], the IC50 in test [1] was ≤ 10 nM; in test [3], 10 to 50 nM. The GI50 in test [2] and in test [4] was ≤ 10 nM throughout.

What is called IC50 is the midpoint of a concentration-inhibition curve. The low end stands for inhibition by little substance, the high end for a need for much substance.
